Test results taken from patent publication US11045669B2, “Hydroalcoholic extract of Schinus molle, cosmetic compositions comprising the same and cosmetic uses thereof” (ISP INVESTMENTS LLC, priority 2015, dated 2021).

Tests used:
[1] = test system: Transglutaminase 1 (TGM1); test: RT-qPCR expression of TGM1 in NHEK; assay type: cell-based, human; settings: 24 h, CaCl2 1.5 mM
Description: (§1) The potential effects of a hydroethanolic extract of Schinus molle obtained in accordance with Example 2 on skin hydration and barrier function were studied in a model of normal human epidermal keratinocytes (NHEKs) by analysing the expression profile of genes specific to the differentiation of keratinocytes and lipid synthesis by an RT-qPCR (reverse transcription quantitative polymerase chain reaction) method. […]
(§2) The expression of the markers was assessed by RT-qPCR on the mRNAs (messenger RNAs) extracted from the cell layers of each treatment (the replicates were pooled before the RNA extraction).
(§3) The analysis of the expression of the genes was performed with n=2 with the aid of 2 “marker quantitative PCR arrays” containing 16 genes, including 2 housekeeping (HK) genes, dedicated to research and adapted to the screening format (mQPA-NHEK-BARRIER-16, product by BIOalternatives®).
(§4) The incorporation of fluorescence in the amplified DNA is measured continuously during the course of the PCR cycles. These measurements make it possible to obtain intensity curves of the fluorescence depending on the PCR cycles and to thus evaluate a value of relative expression (RE) for each marker. The number of cycles is determined on the basis of “exit” points of the fluorescence curves. […]

[2] = test system: Acyl-CoA synthetase short-chain family member 2 (ACSS2); test: RT-qPCR expression of ACSS2 in NHEK; assay type: cell-based, human; settings: 24 h, CaCl2 1.5 mM
Description: (§5) The potential effects of a hydroethanolic extract of Schinus molle obtained in accordance with Example 2 on skin hydration and barrier function were studied in a model of normal human epidermal keratinocytes (NHEKs) by analysing the expression profile of genes specific to the differentiation of keratinocytes and lipid synthesis by an RT-qPCR (reverse transcription quantitative polymerase chain reaction) method.
(§6) • Cell type: 3rd passage NHEKs • Culture conditions: 37° C., 5% CO2 • Culture medium: keratinocyte SFM (serum free medium) supplemented with • epidermal growth factor (EGF) 0.25 ng/ml • pituitary extract (PE) 25 μg/ml • gentamicin 25 μg/ml • Test medium: keratinocyte SFM supplemented with gentamicin 25 μg/ml Tested Compounds
(§7) The normal human epidermal keratinocytes (NHEKs) were seeded and cultivated in culture medium for 24 hours. […] All the conditions were performed with n=3.
as §2, §3
(§8) The incorporation of fluorescence in the amplified DNA is measured continuously during the course of the PCR cycles. These measurements make it possible to obtain intensity curves of the fluorescence depending on the PCR cycles and to thus evaluate a value of relative expression (RE) for each marker. The number of cycles is determined on the basis of “exit” points of the fluorescence curves. For the same analysed marker, the later a sample exits (appeared late, after a number of increased cycles), the lower is the initial number of copies of the mRNA.
(§9) The RE (relative expression) value is expressed in arbitrary units (AU) in accordance with the following formula: (½^number of cycles)×10^6 […]

[3] = test system: Glyceraldehyde-3-phosphate dehydrogenase (GAPDH); settings: NHEK, 24 h, CaCl2 1.5 mM
Description: as §5, §6, §7, §2, §3, §8, §9

[4] = test system: Claudin 1 (CLDN1); test: RT-qPCR expression of CLDN1 in NHEK; assay type: cell-based, human; settings: 24 h, CaCl2 1.5 mM
Description: as §5, §6, §7, §2, §3, §8, §9

[5] = test system: Sphingomyelin phosphodiesterase 1, acid lysosomal (SMPD1); test: RT-qPCR expression of SMPD1 in NHEK; assay type: cell-based, human; settings: 24 h, CaCl2 1.5 mM
Description: as §5, §6, §7, §2, §3, §8, §9

[6] = test system: Aquaporin 3 (AQP3); test: RT-qPCR expression of AQP3 in NHEK; assay type: cell-based, human; settings: 24 h, CaCl2 1.5 mM
Description: as §5, §6, §7, §2, §3, §8, §9

[7] = test system: Arachidonate 12-lipoxygenase (ALOX12); test: RT-qPCR expression of ALOX12 in NHEK; assay type: cell-based, human; settings: 24 h, CaCl2 1.5 mM
Description: as §1, §2, §3, §4

[8] = test system: Hyaluronan synthase 3 (HAS3); test: RT-qPCR expression of HAS3 in NHEK; assay type: cell-based, human; settings: 24 h, CaCl2 1.5 mM
Description: as §5, §6, §7, §2, §3, §8, §9

[9] = test system: Filaggrin (FLG); test: RT-qPCR expression of FLG in NHEK; assay type: cell-based, human; settings: 24 h, CaCl2 1.5 mM
Description: as §1, §2, §3, §4

[10] = test system: UDP-glucose ceramide glucosyltransferase (UGCG); test: RT-qPCR expression of UGCG in NHEK; assay type: cell-based, human; settings: 24 h, CaCl2 1.5 mM
Description: as §5, §6, §7, §2, §3, §8, §9

[11] = test system: Serine palmitoyltransferase, long chain base subunit 1 (SPTLC1); test: RT-qPCR expression of SPTLC1 in NHEK; assay type: cell-based, human; settings: 24 h, CaCl2 1.5 mM
Description: as §5, §6, §7, §2, §3, §8, §9

[12] = test system: Sulfotransferase family, cytosolic, 2B, member 1 (SULT2B1); test: RT-qPCR expression of SULT2B1 in NHEK; assay type: cell-based, human; settings: 24 h, CaCl2 1.5 mM
Description: as §1, §2, §3, §4

[13] = test system: Ribosomal protein S28 (RPS28); test: RT-qPCR expression of RPS28 (housekeeping) in NHEK; assay type: cell-based, human; settings: 24 h, CaCl2 1.5 mM
Description: as §5, §6, §7, §2, §3, §8, §9

[14] = test system: LAG1 homolog, ceramide synthase 6 (LASS6); test: RT-qPCR expression of LASS6 in NHEK; assay type: cell-based, human; settings: 24 h, CaCl2 1.5 mM
Description: as §5, §6, §7, §2, §3, §8, §9

[15] = test system: Glucosidase, beta; acid (GBA); test: RT-qPCR expression of GBA in NHEK; assay type: cell-based, human; settings: 24 h, CaCl2 1.5 mM
Description: as §5, §6, §7, §2, §3, §8, §9

[16] = test system: Involucrin (IVL); test: RT-qPCR expression of IVL in NHEK; assay type: cell-based, human; settings: 24 h, CaCl2 1.5 mM
Description: as §1, §2, §3, §4

[17] = test system: Fatty acid synthase (FASN); test: RT-qPCR expression of FASN in NHEK; assay type: cell-based, human; settings: 24 h, CaCl2 1.5 mM
Description: as §5, §6, §7, §2, §3, §8, §9

What does the source list for [Ca+2].[Cl-].[Cl-] [CaCl2, calcium chloride]?
TGM1 expression, % Control (GAPDH) [1]: 274 % Control; TGM1 expression, % Control (RPS28) [1]: 285 % Control; ACSS2 expression, % Control (GAPDH) [2]: 127 % Control; ACSS2 expression, % Control (RPS28) [2]: 132 % Control; ACSS2 expression, % Control (mean HK) [2]: 128 % Control; GAPDH expression, % Control (GAPDH) [3]: 100 % Control; GAPDH expression, % Control (RPS28) [3]: 104 % Control; GAPDH expression, % Control (mean HK) [3]: 101 % Control; CLDN1 expression, % Control (GAPDH) [4]: 145 % Control; CLDN1 expression, % Control (RPS28) [4]: 152 % Control; CLDN1 expression, % Control (mean HK) [4]: 147 % Control; SMPD1 expression, % Control (GAPDH) [5]: 108 % Control; SMPD1 expression, % Control (RPS28) [5]: 113 % Control; SMPD1 expression, % Control (mean HK) [5]: 109 % Control; AQP3 expression, % Control (GAPDH) [6]: 110 % Control; AQP3 expression, % Control (RPS28) [6]: 115 % Control; AQP3 expression, % Control (mean HK) [6]: 111 % Control; ALOX12 expression, % Control (GAPDH) [7]: 151 % Control; ALOX12 expression, % Control (RPS28) [7]: 158 % Control; HAS3 expression, % Control (GAPDH) [8]: 108 % Control; HAS3 expression, % Control (RPS28) [8]: 112 % Control; HAS3 expression, % Control (mean HK) [8]: 108 % Control; FLG expression, % Control (GAPDH) [9]: 151 % Control; FLG expression, % Control (RPS28) [9]: 157 % Control; UGCG expression, % Control (GAPDH) [10]: 118 % Control; UGCG expression, % Control (RPS28) [10]: 123 % Control; UGCG expression, % Control (mean HK) [10]: 119 % Control; SPTLC1 expression, % Control (GAPDH) [11]: 95 % Control; SPTLC1 expression, % Control (RPS28) [11]: 99 % Control; SPTLC1 expression, % Control (mean HK) [11]: 96 % Control; SULT2B1 expression, % Control (GAPDH) [12]: 244 % Control; SULT2B1 expression, % Control (RPS28) [12]: 254 % Control; RPS28 expression, % Control (GAPDH) [13]: 96 % Control; RPS28 expression, % Control (RPS28) [13]: 100 % Control; RPS28 expression, % Control (mean HK) [13]: 97 % Control; LASS6 expression, % Control (GAPDH) [14]: 103 % Control; LASS6 expression, % Control (RPS28) [14]: 107 % Control; LASS6 expression, % Control (mean HK) [14]: 104 % Control; GBA expression, % Control (GAPDH) [15]: 123 % Control; GBA expression, % Control (RPS28) [15]: 128 % Control; GBA expression, % Control (mean HK) [15]: 124 % Control; IVL expression, % Control (GAPDH) [16]: 175 % Control; IVL expression, % Control (RPS28) [16]: 183 % Control; FASN expression, % Control (GAPDH) [17]: 105 % Control; FASN expression, % Control (RPS28) [17]: 109 % Control; FASN expression, % Control (mean HK) [17]: 106 % Control
